For this assay, the target named is MCH receptor (Homo sapiens, UniProt Q99705). Kind of assay: High throughput functional screening FLIPR/FDSS6000: inhibition of MCH-evoked intracellular Ca2+ changes. Format: cell-based. To be noted: class by percent of control at 10^-7 M or IC50. A digest of the protocol:
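Antagonism was measured as inhibition of calcium responses to 50 nM MCH, monitored 290 s at ex 488/em 530 nm on FLIPR or FDSS6000. Beforehand, cells bearing a constitutively active MCH receptor received Fluo4-AM (4 μM, 1 h, 37 °C) with probenecid, and test compound for 3 min.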

Molecules are shown by their SMILES.

On to `CN(C)c1nc(N[C@H]2CC[C@@H](CNC(=O)Nc3ccc4c(c3)C(F)(F)OC(F)(F)O4)CC2)nc2ccccc12` [compound 755, N-[(cis-4-{[4-(dimethylamino)quinazolin-2-yl]amino}-cyclohexyl)methyl]-N′-(2,2,4,4,-tetrafluoro-4H-1,3-benzodioxin-6-yl)urea], for which the class is 3 (Class 3: The value of percent of control at 10^−7 M was more than 60% or the value of IC50 was more than 200 nM.).

As to `CN(C)c1nc(N[C@H]2CC[C@@H](CNC(=O)NCCc3cccs3)CC2)nc2ccccc12` [compound 757], the class is 3 (Class 3: The value of percent of control at 10^−7 M was more than 60% or the value of IC50 was more than 200 nM.).

Take `CN(C)c1nc(N[C@H]2CC[C@@H](CNC(=O)Nc3ccc4c(c3)OCCO4)CC2)nc2ccccc12` [compound 758]: the class was 3 (Class 3: The value of percent of control at 10^−7 M was more than 60% or the value of IC50 was more than 200 nM.).

For `CC(C)c1cc(Br)c(NC(=O)NC[C@H]2CC[C@@H](Nc3nc(N(C)C)c4ccccc4n3)CC2)c(Br)c1` [compound 759, N-(2,6-dibromo-4-isopropylphenyl)-N′-[(cis-4-{[4-(dimethylamino)quinazolin-2-yl]amino}cyclohexyl)methyl]urea], the class is 2 (Class 2: The value of percent of control at 10^−7 M was from 40% to 60% or the value of IC50 was from 50 nM to 200 nM.).

With `CN(C)c1nc(N[C@H]2CC[C@@H](CNC(=O)Nc3ccccc3C#N)CC2)nc2ccccc12` [compound 760], the class is 3 (Class 3: The value of percent of control at 10^−7 M was more than 60% or the value of IC50 was more than 200 nM.).

`CN(C)c1nc(N[C@H]2CC[C@@H](CNC(=O)Nc3cccs3)CC2)nc2ccccc12` [compound 761]: the class is given as 3 (Class 3: The value of percent of control at 10^−7 M was more than 60% or the value of IC50 was more than 200 nM.).

On to `COc1ccc(NC(=O)NC[C@H]2CC[C@@H](Nc3nc(N(C)C)c4ccccc4n3)CC2)cc1OC1CCCC1` [compound 762], for which the class is recorded as 3 (Class 3: The value of percent of control at 10^−7 M was more than 60% or the value of IC50 was more than 200 nM.).

On to `CN(C)c1nc(N[C@H]2CC[C@@H](CNC(=O)Nc3ccc4c(c3)OCCCO4)CC2)nc2ccccc12` [compound 763], for which the class was 3 (Class 3: The value of percent of control at 10^−7 M was more than 60% or the value of IC50 was more than 200 nM.).

For `CN(C)c1nc(N[C@H]2CC[C@@H](CNC(=O)Nc3ccsc3)CC2)nc2ccccc12` [compound 764, N-[(cis-4-{[4-(dimethylamino)quinazolin-2-yl]amino}cyclohexyl)methyl]-N′-3-thienylurea], the class is 2 (Class 2: The value of percent of control at 10^−7 M was from 40% to 60% or the value of IC50 was from 50 nM to 200 nM.).

In the case of `CN(C)c1nc(N[C@H]2CC[C@@H](CNC(=O)Nc3ccc(C(C)(C)C)cc3)CC2)nc2ccccc12` [compound 765], the class is 3 (Class 3: The value of percent of control at 10^−7 M was more than 60% or the value of IC50 was more than 200 nM.).

`CCCCc1ccc(NC(=O)NC[C@H]2CC[C@@H](Nc3nc(N(C)C)c4ccccc4n3)CC2)c(C)c1` [compound 766]: the class is 3 (Class 3: The value of percent of control at 10^−7 M was more than 60% or the value of IC50 was more than 200 nM.).

As to `Cc1cc(NC(=O)NC[C@H]2CC[C@@H](Nc3nc(N(C)C)c4ccccc4n3)CC2)c(C(F)(F)F)o1` [compound 767, N-[(cis-4-{[4-(dimethylamino)quinazolin-2-yl]amino}cyclohexyl)methyl]-N′-[5-methyl-2-(trifluoromethyl)-3-furyl]urea], the class was 1 (Class 1: The value of percent of control at 10^−7 M was less than 40% or the value of IC50 was less than 50 nM.).

As to `CN(C)c1nc(N[C@H]2CC[C@@H](CNC(=O)Nc3ccc(-c4ccccc4)s3)CC2)nc2ccccc12` [compound 768], the class is reported as 3 (Class 3: The value of percent of control at 10^−7 M was more than 60% or the value of IC50 was more than 200 nM.).

Regarding `CN(C)c1nc(N[C@H]2CC[C@@H](CNC(=O)Nc3cc(F)cc4c3OCOC4)CC2)nc2ccccc12` [compound 769, N-[(cis-4-{[4-(dimethylamino)quinazolin-2-yl]amino}cyclohexyl)methyl]-N′-(6-fluoro-4H-1,3-benzodioxin-8-yl)urea], the class was 2 (Class 2: The value of percent of control at 10^−7 M was from 40% to 60% or the value of IC50 was from 50 nM to 200 nM.).

As for `CN(C)c1nc(N[C@H]2CC[C@@H](CNC(=O)NC3CCN(C(=O)OCc4ccccc4)CC3)CC2)nc2ccccc12` [compound 770], the class is on record as 3 (Class 3: The value of percent of control at 10^−7 M was more than 60% or the value of IC50 was more than 200 nM.).

`Cc1ccc2nc(-c3ccc(NC(=O)NC[C@H]4CC[C@@H](Nc5nc(N(C)C)c6ccccc6n5)CC4)cc3)sc2c1` [compound 771]: the class was 3 (Class 3: The value of percent of control at 10^−7 M was more than 60% or the value of IC50 was more than 200 nM.).

Regarding `CN(C)c1ccc(NC(=O)NC[C@H]2CC[C@@H](Nc3nc(N(C)C)c4ccccc4n3)CC2)cc1` [compound 772], the class is 3 (Class 3: The value of percent of control at 10^−7 M was more than 60% or the value of IC50 was more than 200 nM.).

As to `CN(C)c1nc(N[C@H]2CC[C@@H](CNC(=O)Nc3cc(Cl)nc(Cl)c3)CC2)nc2ccccc12` [compound 773], the class was 3 (Class 3: The value of percent of control at 10^−7 M was more than 60% or the value of IC50 was more than 200 nM.).

As for `Cc1noc(C)c1NC(=O)NC[C@H]1CC[C@@H](Nc2nc(N(C)C)c3ccccc3n2)CC1` [compound 774, N-[(cis-4-{[4-(dimethylamino)quinazolin-2-yl]amino}cyclohexyl)methyl]-N′-(3,5-dimethylisoxazol-4-yl)urea], the class was 2 (Class 2: The value of percent of control at 10^−7 M was from 40% to 60% or the value of IC50 was from 50 nM to 200 nM.).

On to `Cc1noc(-c2ccccc2)c1NC(=O)NC[C@H]1CC[C@@H](Nc2nc(N(C)C)c3ccccc3n2)CC1` [compound 775], for which the class is 1 (Class 1: The value of percent of control at 10^−7 M was less than 40% or the value of IC50 was less than 50 nM.).

In the case of `Cc1onc(-c2ccccc2)c1NC(=O)NC[C@H]1CC[C@@H](Nc2nc(N(C)C)c3ccccc3n2)CC1` [compound 776], the class was 2 (Class 2: The value of percent of control at 10^−7 M was from 40% to 60% or the value of IC50 was from 50 nM to 200 nM.).

On to `C#CCNC(=S)NC[C@H]1CC[C@@H](Nc2nc(N(C)C)c3ccccc3n2)CC1` [compound 777], for which the class was 3 (Class 3: The value of percent of control at 10^−7 M was more than 60% or the value of IC50 was more than 200 nM.).

As to `CN(C)c1nc(N[C@H]2CC[C@@H](CNC(=S)Nc3ccc(S(=O)(=O)N4CCCCC4)cc3)CC2)nc2ccccc12` [compound 778], the class was 3 (Class 3: The value of percent of control at 10^−7 M was more than 60% or the value of IC50 was more than 200 nM.).

Regarding `CN(C)c1nc(N[C@H]2CC[C@@H](CNC(=S)NCCC3=CCCCC3)CC2)nc2ccccc12` [compound 779], the class was 3 (Class 3: The value of percent of control at 10^−7 M was more than 60% or the value of IC50 was more than 200 nM.).

On to `Cc1cccc(NC(=S)NC[C@H]2CC[C@@H](Nc3nc(N(C)C)c4ccccc4n3)CC2)c1C` [compound 780], for which the class is listed as 3 (Class 3: The value of percent of control at 10^−7 M was more than 60% or the value of IC50 was more than 200 nM.).

Regarding `CN(C)c1nc(N[C@H]2CC[C@@H](CNC(=S)Nc3c(F)cc(Br)cc3Br)CC2)nc2ccccc12` [compound 781, N-(2,4-dibromo-6-fluorophenyl)-N′-[(cis-4-{[4-(dimethylamino)quinazolin-2-yl]amino}cyclohexyl)methyl]thiourea], the class is listed as 2 (Class 2: The value of percent of control at 10^−7 M was from 40% to 60% or the value of IC50 was from 50 nM to 200 nM.).

Consider `Cc1cc(Cl)cc(Cl)c1NC(=S)NC[C@H]1CC[C@@H](Nc2nc(N(C)C)c3ccccc3n2)CC1` [compound 782, N-(2,4-dichloro-6-methylphenyl)-N′-[(cis-4-{[4-(dimethylamino)quinazolin-2-yl]amino}cyclohexyl)methyl]thiourea], for which the class is listed as 2 (Class 2: The value of percent of control at 10^−7 M was from 40% to 60% or the value of IC50 was from 50 nM to 200 nM.).

As for `Cc1ccc(C)c(NC(=S)NC[C@H]2CC[C@@H](Nc3nc(N(C)C)c4ccccc4n3)CC2)c1` [compound 783, N-[(cis-4-{[4-(dimethylamino)quinazolin-2-yl]amino}cyclohexyl)methyl]-N′-(2,5-dimethylphenyl)thiourea], the class was 2 (Class 2: The value of percent of control at 10^−7 M was from 40% to 60% or the value of IC50 was from 50 nM to 200 nM.).

Consider `CC(C)c1ccc(NC(=S)NC[C@H]2CC[C@@H](Nc3nc(N(C)C)c4ccccc4n3)CC2)c(Br)c1` [compound 784], for which the class is 3 (Class 3: The value of percent of control at 10^−7 M was more than 60% or the value of IC50 was more than 200 nM.).

Take `CN(C)c1nc(N[C@H]2CC[C@@H](CNC(=S)Nc3cc(F)ccc3Br)CC2)nc2ccccc12` [compound 785]: the class is recorded as 3 (Class 3: The value of percent of control at 10^−7 M was more than 60% or the value of IC50 was more than 200 nM.).

In the case of `CCOc1ccccc1NC(=S)NC[C@H]1CC[C@@H](Nc2nc(N(C)C)c3ccccc3n2)CC1` [compound 786, N-[(cis-4-{[4-(dimethylamino)quinazolin-2-yl]amino}cyclohexyl)methyl]-N′-(2-ethoxyphenyl)thiourea], the class is 2 (Class 2: The value of percent of control at 10^−7 M was from 40% to 60% or the value of IC50 was from 50 nM to 200 nM.).

In the case of `Cc1cccc(C(C)C)c1NC(=S)NC[C@H]1CC[C@@H](Nc2nc(N(C)C)c3ccccc3n2)CC1` [compound 787], the class is 1 (Class 1: The value of percent of control at 10^−7 M was less than 40% or the value of IC50 was less than 50 nM.).
